Measured values: patent US11447485B2, “Class of bifunctional compounds with quanternary ammonium salt structure” (Beijing Showby Pharmaceutical Co., Ltd., priority 2016, dated 2022)
Where two headings read alike, the source gives them in different places.

Key:
[1] = test system: guinea pig tracheal smooth muscle (MABA); experiment: MABA activity: relaxation of CCh pre-constricted guinea pig isolated trachea; conditions: Cavia porcellus; CCh 3×10^−6 mol/L
Protocol: (1) The Constriction Effect of Tracheal Smooth Muscle of Guinea Pig Induced by the Example Compounds Antagonizing Carbachol (CCh)
(§1) Preparation of an isolated tracheal smooth muscle specimen of a guinea pig: same as Experiment Example 1.
Administration Method: After the trachea flake were stabilized, carbachol with a final concentration of 3×10^−6 mol/L was added, and administration was started when the pressure value of the trachea flake was increased to a stable platform. The experiments were divided into blank group and each test sample administration group. DMSO solution prepared from K—H solution and 50 μl of each test sample solution were added to each group respectively. The test sample administration group was added with 10^−9, 0.3×10^−8, 10^−8, 0.3×10^−7, 10^−7, 0.3×10^−6 and 10^−6 mol/L of test compound and control substance at cumulative concentration. The blank group was added with corresponding diluted DMSO solution. Medlab was used to record the relaxation degree of smooth muscle of the trachea flake. Finally, isoproterenol with a final concentration of 10^−5 mol/L was added as 100% relaxation.

[2] = test system: M receptor of guinea pig tracheal smooth muscle; experiment: MA activity: guinea pig isolated trachea, propranolol blocks β receptor, CCh constriction; conditions: Cavia porcellus; propranolol 10^−5 mol/L, CCh 3×10^−6 mol/L
Protocol: (2) Blocking Effect of Example Compounds on M Receptor of Guinea Pig Tracheal Smooth Muscle
as §1
Administration method: After trachea flake was stabilized, propranolol hydrochloride solution with a final concentration of 10^−5 mol/L was added to block β receptor for 10 min, carbachol with a final concentration of 3×10^−6 mol/L was added (observing M receptor antagonism of compound after propranolol blocks β receptor), and administration was started when the pressure value of the trachea flake was increased to a stable platform. The experiments were divided into a blank group, a propranolol+blank group, each test sample administration group and a propranolol+each test sample administration group. DMSO solution prepared by K—H solution and 50 μl of test sample solution were added to each group of the blank group and each test sample administration group respectively. The propranolol+blank group and propranolol+each test sample administration group were added with 50 μl propranolol solution for 10 min respectively, and then added with DMSO solution prepared from K—H solution and 50 μl of test sample solution. The test sample administration group was added with the compounds to be tested with final concentrations of 10^−9, 0.3×10^−8, 10^−8, 0.3×10^−7, 10^−7, 0.3×10^−6 and 10^−6 mol/L at cumulative concentration, and the blank group was added with corresponding diluted DMSO solution. The propranolol+each test sample administration group was added with propranolol for 10 min, and then added with the compounds to be tested with final concentrations of 10^−9, 0.3×10^−8, 10^−8, 0.3×10^−7, 10^−7, 0.3×10^−6 and 10^−6 mol/L at cumulative concentration. After the propranolol+blank group was added with propranolol for 10 min, corresponding diluted DMSO solution was added. Medlab was used to record the relaxation degree of tracheal smooth muscle, finally sodium nitroprusside with a final concentration of […] was added as 100% relaxation.

[3] = test system: β2 receptor in guinea pig tracheal smooth muscle; experiment: BA activity: guinea pig isolated trachea pre-treated with histamine; conditions: Cavia porcellus
Protocol: (3) The Antagonism of the Example Compounds on β2 Receptor in Guinea Pig Tracheal Smooth Muscle
as §1
Administration Method: After the trachea flake was stabilized, histamine solution with a final concentration of 3×10^−5 mol/L was added for 10 min, carbachol with a final concentration of 3×10^−6 mol/L was added (observing β receptor antagonism), and administration was started when the pressure value of the trachea flake was increased to a stable platform. The experiments were divided into a blank group, a histamine+blank group, each test sample administration group and a histamine+each test sample administration group. DMSO solution prepared by K—H solution and 50 μl of test sample solution were added to each group of the blank group and each test sample administration group respectively. The histamine+blank group and histamine+each test sample administration group were added with 50 μl histamine solution for 10 min respectively, then added with DMSO solution prepared by K—H solution and 50 μl test sample solution. The test sample administration group was added with the compounds to be tested with final concentrations of 10^−9, 0.3×10^−8, 10^−8, 0.3×10^−7, 10^−7, 0.3×10^−6 and 10^−6 mol/L at cumulative concentration, and the blank group was added with corresponding diluted DMSO solution. The histamine+each test sample administration group was added with histamine for 10 min, and then added with the test compounds with final concentrations of 10^−9, 0.3×10^−8, 10^−8, 0.3×10^−7, 10^−7, 0.3×10^−6 and 10^−6 mol/L at cumulative concentration. After the histamine+blank group was added with histamine for 10 m, corresponding diluted DMSO solution was added. Medlab was used to record the relaxation degree of smooth muscle of the trachea flake. Finally theophylline with a final concentration of 2×10^−4 mol/L was added as 100% relaxation.

[4] = test system: heart rate of Beagle dogs; experiment: Heart rate changes after iv administration in Beagle dogs; assay type: in vivo, Beagle dog
Protocol: Beagle dogs were randomly divided into two groups, half male and half female, and were intravenously injected (iv) with 7.5% ethanol solution of compounds of the invention and control compound. Each compound was set up in two dosage groups of 0.01 mg/kg and 0.10 mg/kg.

[5] = Liver microsome metabolic stability in vitro (human); conditions: Human liver microsomes
Protocol: (§2) The area ratio of the 0 min sample was taken as 100%, and the remaining percentage of the compound after incubation at different times was obtained at each time point by comparison with the sample. With the natural logarithm of this percentage on the ordinate and time on the abscissa, a scatter plot was drawn to simulate a straight line with a negative slope of k. The parameters were calculated according to the formula.
(§3) Liver weight indicates the liver weight (g) per kilogram of body weight, and P450 indicates the amount (mg) of P450 enzyme per gram of liver.

[6] = Liver microsome metabolic stability in vitro (SD rat); conditions: SD rat liver microsomes
Protocol: as §2, §3

[7] = Liver microsome metabolic stability in vitro (Beagle dog); conditions: Beagle dog liver microsomes
Protocol: as §2, §3

[8] = Lung homogenate stability in vitro (human); assay type: in vitro ADME; conditions: 8 h, 37° C.
[9] = Lung homogenate stability in vitro (dog); assay type: in vitro ADME, Beagle dog; conditions: 8 h, 37° C.
Protocol: The compounds of the invention were respectively incubated with the lung homogenate of Beagle dogs for 8 hours in a water bath at 37° C., and sample was analysed by LC-MS/MS when the reaction was terminated.

EC50 ([3]; histamine 3×10^−5 mol/L, read-out: BA (EC50)) [nM] | SMILES | EC50 [1] [nM] | EC50 [2] [nM] | EC50 ([3]; read-out: BA (EC50, nM)) [nM] | 0.5-4 h area increase under heart rate curve (%) ([4]; 0.01 mg/kg iv) | 0.5-4 h area increase under heart rate curve (%) ([4]; 0.10 mg/kg iv) | liver extraction rate (ERh) [5] | liver extraction rate (ERh) [6] | liver extraction rate (ERh) [7] | Residual rate after incubation of human lung homogenate (%) [8] [%] | Residual rate after incubation of dog lung homogenate (%) [9] [%]
 | OCc1cc([C@@H](O)CNCCCCCCCCC[N+]23CCC(CC2)[C@@H](OC[C@@](O)(c2ccccc2)C2CCCC2)C3)ccc1O.[Br-] [Compound 7] | 72.3 ± 14.6 | 290 ± 12.3 | 162 ± 9.8 | −0.5 | 0 | 0.94 | 0.97 | 0.98 | 93 | 95
 | O=c1ccc2c([C@@H](O)CNCCCCCCCCC[N+]34CCC(CC3)[C@@H](OC[C@@](O)(c3ccccc3)C3CCCC3)C4)ccc(O)c2[nH]1.[Br-] [Compound 12] | 5.8 ± 1.4 | 20.1 ± 2.8 | 13.8 ± 2.3 | 1.2 | 3.6 | 0.96 | 0.98 | 0.93 | 98 | 91
 | CC(Cc1ccc(OCC[N+]23CCC(CC2)[C@@H](OC[C@@](O)(c2ccccc2)C2CCCC2)C3)cc1)NC[C@H](O)c1ccc(O)c(NC=O)c1 (stereo partly drawn) [Compound 61, (R)-(−)-3-[(R)-2-hydroxy-2-cyclopentyl-2-phenyl]ethoxy]-1-{2-[4-(2-{(R)-[2-hydroxy-2-(3-formamido-4-hydroxy)phenyl]ethylamino}propyl)phenoxy]ethyl}-1-azabicyclo[2,2,2]octylonium bromide] | 5 ± 1.1 | 20.6 ± 1.8 | 12.9 ± 1.8 | 0 | 2.1 | 0.98 | 0.95 | 0.97 | 92 | 89
 | CC(NC[C@H](O)c1ccc(O)c(CO)c1)c1ccc(OCCC[N+]23CCC(CC2)[C@@H](OC[C@@](O)(c2ccccc2)C2CCCC2)C3)cc1 (stereo partly shown) [Compound 69] | 7.6 ± 1.8 | 27.7 ± 3.4 | 18.7 ± 2.8 | −5.1 | −3.4 | 0.95 | 0.96 | 0.94 | 94 | 90
 | CC(Cc1ccc(OCCC[N+]23CCC(CC2)[C@@H](OC[C@@](O)(c2ccccc2)C2CCCC2)C3)cc1)NC[C@H](O)c1ccc(O)c2[nH]c(=O)ccc12.[Br-] (stereo partly shown) [Compound 80] | 3.3 ± 0.9 | 13.3 ± 1.2 | 9.9 ± 1.7 | 4 | −5.1 | 0.92 | 0.92 | 0.91 | 92 | 92
 | CC(NC[C@H](O)c1ccc(O)c(NC=O)c1)c1ccc(OCCC[N+]23CCC(CC2)[C@@H](OC[C@@](O)(c2ccccc2)C2CCCC2)C3)cc1.[Br-] (stereo partly shown) [Compound 94] | 19.8 ± 5.4 | 43.5 ± 4.2 | 33.5 ± 5.7 | −2.8 | 4.6 | 0.93 | 0.94 | 0.94 | 91 | 96
 | O=CNc1cc([C@@H](O)CNCCCOc2ccc(OCCC[N+]34CCC(CC3)[C@@H](OC[C@@](O)(c3ccccc3)C3CCCC3)C4)cc2)ccc1O [Compound 113, (R)-(−)-3-[(R)-2-hydroxy-2-cyclopentyl-2-phenyl]ethoxy-1-{3-[4-(3-{(R)-[2-hydroxy-2-(3-formamido-4-hydroxy)phenyl]ethylamino}propoxy)phenoxy]propyl}-1-azabicyclo[2,2,2]octylonium bromide] | 7.2 ± 1.4 | 15.6 ± 2.6 | 17.6 ± 1.9 | −3.4 | 3.3 | 0.97 | 0.96 | 0.96 | 93 | 93
 | OCc1cc([C@@H](O)CNCCCOc2ccc(OCCC[N+]34CCC(CC3)[C@@H](OC[C@@](O)(c3ccccc3)C3CCCC3)C4)cc2)ccc1O.[Br-] [Compound 122] | 15.6 ± 3.6 | 56.7 ± 6.6 | 36.8 ± 4.1 | 6.6 | 0 | 0.93 | 0.97 | 0.98 | 95 | 92
 | O=c1ccc2c([C@@H](O)CNCCCOc3ccc(OCCC[N+]45CCC(CC4)[C@@H](OC[C@@](O)(c4ccccc4)C4CCCC4)C5)cc3)ccc(O)c2[nH]1.[Br-] [Compound 131] | 4 ± 1 | 30.2 ± 8.1 | 9.2 ± 1.6 | 10 | 2.9 | 0.99 | 0.93 | 0.93 | 90 | 94
93.8 ± 6.8 | OCc1cc(C(O)CNCCCCCCOCCCCc2ccccc2)ccc1O (stereo not shown) [Salmeterol, reference compound] |  |  |  |  |  |  |  |  |  | 
